Reference: the NIST ThermoML archive (doi:10.1021/je500420g)
± gives the expanded uncertainty stated by the source.

Test: xn = mol fraction of the nth substance listed
Details: 100 kPa, Liquid, Vibrating tube method

mass density (293.15 K, x1 = 0.01) [kg/m3] | mass density (293.15 K, x1 = 0.03) [kg/m3] | mass density (293.15 K, x1 = 0.05) [kg/m3] | mass density (303.15 K, x1 = 0.01) [kg/m3] | mass density (303.15 K, x1 = 0.03) [kg/m3] | mass density (303.15 K, x1 = 0.05) [kg/m3] | mass density (313.15 K, x1 = 0.01) [kg/m3] | mass density (313.15 K, x1 = 0.03) [kg/m3] | mass density (313.15 K, x1 = 0.05) [kg/m3] | mass density (323.15 K, x1 = 0.01) [kg/m3] | mass density (323.15 K, x1 = 0.03) [kg/m3] | mass density (323.15 K, x1 = 0.05) [kg/m3] | mass density (333.15 K, x1 = 0.01) [kg/m3] | mass density (333.15 K, x1 = 0.03) [kg/m3] | mass density (333.15 K, x1 = 0.05) [kg/m3] | SMILES
1070.9 ± 0.2 | 1210.1 ± 0.3 | 1349.9 ± 0.4 | 1068 ± 0.2 | 1206.2 ± 0.3 | 1345.4 ± 0.4 | 1064.3 ± 0.2 | 1201.7 ± 0.3 | 1340.4 ± 0.4 | 1059.9 ± 0.3 | 1196.6 ± 0.3 | 1334.9 ± 0.4 | 1053 ± 0.3 | 1190.9 ± 0.3 | 1329.1 ± 0.4 | [Cs+].[F-] [cesium fluoride (CsF)] + O
1048.7 ± 0.2 | 1150.6 ± 0.3 | 1250.3 ± 0.4 | 1045.7 ± 0.2 | 1146.5 ± 0.3 | 1246.1 ± 0.4 | 1042 ± 0.2 | 1141.9 ± 0.3 | 1241.4 ± 0.4 | 1037.6 ± 0.2 | 1137 ± 0.3 | 1236.2 ± 0.4 | 1032.6 ± 0.2 | 1131.6 ± 0.3 | 1230.6 ± 0.4 | [F-].[Rb+] [rubidium fluoride (RbF)] + O
